According to patent publication US12319664B2, “Herbicidally active 3-phenylisoxazoline-5-carboxamides of cyclopentenylcarboxylic acid derivatives” (Bayer Aktiengesellschaft, priority 2018, dated 2025):

Legend:
[1] = system: ALOMY; experiment: Pre-emergence herbicidal action against ALOMY; format: in vivo, Alopecurus myosuroides; conditions: application rate 80 g/ha, scored visually after about 3 weeks vs untreated controls (100% = plants have died, 0% = like control plants)
Source text: (§1) 1. Pre-emergence herbicidal action against harmful plants and crop plant compatibility Seeds of monocotyledonous and dicotyledonous weed plants and crop plants are placed in plastic or wood-fibre pots and covered with soil. The compounds of the invention, formulated in the form of wettable powders (WP) or as emulsion concentrates (EC), are then applied onto the surface of the covering soil as aqueous suspension or emulsion with addition of 0.5% additive at a water application rate of 600 l/ha (converted). After the treatment, the pots are placed in a greenhouse and kept under good growth conditions for the trial plants. After about 3 weeks, the effect of the preparations is scored visually in comparison with untreated controls as percentages. For example, 100% activity=the plants have died, 0% activity=like control plants. [table]

[2] = system: AVEFA; experiment: Pre-emergence herbicidal action against AVEFA; format: in vivo, Avena fatua; conditions: application rate 80 g/ha, scored visually after about 3 weeks vs untreated controls (100% = plants have died, 0% = like control plants)
Source text: as §1

[3] = system: ECHCG; experiment: Pre-emergence herbicidal action against ECHCG; format: in vivo, Echinochloa crus-galli; conditions: application rate 80 g/ha, scored visually after about 3 weeks vs untreated controls (100% = plants have died, 0% = like control plants)
Source text: as §1

[4] = system: LOLRI; experiment: Pre-emergence herbicidal action against LOLRI; format: in vivo, Lolium rigidum; conditions: application rate 80 g/ha, scored visually after about 3 weeks vs untreated controls (100% = plants have died, 0% = like control plants)
Source text: as §1

[5] = system: SETVI; experiment: Pre-emergence herbicidal action against SETVI; format: in vivo, Setaria viridis; conditions: application rate 80 g/ha, scored visually after about 3 weeks vs untreated controls (100% = plants have died, 0% = like control plants)
Source text: as §1

[6] = system: AMARE; experiment: Pre-emergence herbicidal action against AMARE; format: in vivo, Amaranthus retroflexus; conditions: application rate 80 g/ha
Source text: as §1

[7] = system: POLCO; experiment: Pre-emergence herbicidal action against POLCO; format: in vivo, Polygonum convolvulus; conditions: application rate 80 g/ha
Source text: as §1

[8] = system: STEME; experiment: Pre-emergence herbicidal action against STEME; format: in vivo, Stellaria media; conditions: application rate 80 g/ha
Source text: as §1

[9] = system: VIOTR; experiment: Pre-emergence herbicidal action against VIOTR; format: in vivo, Viola tricolor; conditions: application rate 80 g/ha
Source text: as §1

[10] = system: VERPE; experiment: Pre-emergence herbicidal action against VERPE; format: in vivo, Veronica persica; conditions: application rate 80 g/ha
Source text: as §1

[11] = system: HORMU; experiment: Pre-emergence herbicidal action against HORMU; format: in vivo, Hordeum murinum; conditions: application rate 80 g/ha
Source text: as §1

[12] = system: ALOMY; experiment: Post-emergence herbicidal action against ALOMY; format: in vivo, Alopecurus myosuroides; conditions: application rate 80 g/ha, rated visually after about 3 weeks
Procedure, shortened: (§2)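 Spray-treated at one-leaf stage, 2 to 3 weeks after sowing; greenhouse, sandy loam. Formulation WP or EC, 0.5% additive, 600 l/ha. Readout: visual percent activity at about 3 weeks, untreated = 0%.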

[13] = system: AVEFA; experiment: Post-emergence herbicidal action against AVEFA; format: in vivo, Avena fatua; conditions: application rate 80 g/ha, rated visually after about 3 weeks
Procedure, shortened: as §2

[14] = system: ECHCG; experiment: Post-emergence herbicidal action against ECHCG; format: in vivo, Echinochloa crus-galli; conditions: application rate 80 g/ha, rated visually after about 3 weeks
Procedure, shortened: as §2

[15] = system: LOLRI; experiment: Post-emergence herbicidal action against LOLRI; format: in vivo, Lolium rigidum; conditions: application rate 80 g/ha, rated visually after about 3 weeks
Procedure, shortened: as §2

[16] = system: STEME; experiment: Post-emergence herbicidal action against STEME; format: in vivo, Stellaria media; conditions: application rate 80 g/ha, rated visually about 3 weeks after treatment
Procedure, shortened: as §2

[17] = system: VIOTR; experiment: Post-emergence herbicidal action against VIOTR; format: in vivo, Viola tricolor; conditions: application rate 80 g/ha, rated visually about 3 weeks after treatment
Procedure, shortened: as §2

[18] = system: VERPE; experiment: Post-emergence herbicidal action against VERPE; format: in vivo, Veronica persica; conditions: application rate 80 g/ha
Procedure, shortened: as §2

[19] = system: HORMU; experiment: Post-emergence herbicidal action against HORMU; format: in vivo, Hordeum murinum; conditions: application rate 80 g/ha
Procedure, shortened: as §2

[20] = system: PHBPU; experiment: Pre-emergence herbicidal action against PHBPU; format: in vivo, Pharbitis purpurea; conditions: application rate 80 g/ha
Source text: as §1

[21] = system: SETVI; experiment: Post-emergence herbicidal action against SETVI; format: in vivo, Setaria viridis; conditions: application rate 80 g/ha, rated visually after about 3 weeks
Procedure, shortened: as §2

[22] = system: AMARE; experiment: Post-emergence herbicidal action against AMARE; format: in vivo, Amaranthus retroflexus; conditions: application rate 80 g/ha, rated visually about 3 weeks after treatment
Procedure, shortened: as §2

[23] = system: POLCO; experiment: Post-emergence herbicidal action against POLCO; format: in vivo, Polygonum convolvulus; conditions: application rate 80 g/ha, rated visually about 3 weeks after treatment
Procedure, shortened: as §2

[24] = system: MATIN; experiment: Pre-emergence herbicidal action against MATIN; format: in vivo, Matricaria inodora; conditions: application rate 80 g/ha, scored visually after about 3 weeks vs untreated controls (100% = plants have died, 0% = like control plants)
Source text: as §1

[25] = system: ABUTH; experiment: Post-emergence herbicidal action against ABUTH; format: in vivo, Abutilon theophrasti; conditions: application rate 80 g/ha, rated visually about 3 weeks after treatment
Procedure, shortened: as §2

[26] = system: PHBPU; experiment: Post-emergence herbicidal action against PHBPU; format: in vivo, Pharbitis purpurea; conditions: application rate 80 g/ha, rated visually about 3 weeks after treatment
Procedure, shortened: as §2

Row | Compound | Herbicidal action against [%] ALOMY [1] [%] | Herbicidal action against [%] AVEFA [2] [%] | Herbicidal action against [%] ECHCG [3] [%] | Herbicidal action against [%] LOLRI [4] [%] | Herbicidal action against [%] SETVI [5] [%] | Herbicidal action against [%] AMARE [6] [%] | Herbicidal action against [%] POLCO [7] [%] | Herbicidal action against [%] STEME [8] [%] | Herbicidal action against [%] VIOTR [9] [%] | Herbicidal action against [%] VERPE [10] [%] | Herbicidal action against [%] HORMU [11] [%] | Herbicidal action against [%] ALOMY [12] [%] | Herbicidal action against [%] AVEFA [13] [%] | Herbicidal action against [%] ECHCG [14] [%] | Herbicidal action against [%] LOLRI [15] [%] | Herbicidal action against [%] STEME [16] [%] | Herbicidal action against [%] HORMU [19] [%] | Herbicidal action against [%] PHBPU [20] [%] | Herbicidal action against [%] SETVI [21] [%] | Herbicidal action against [%] AMARE [22] [%] | further results
1 | CC1(C(=O)NC2C=CC(C(=O)N3CCCCO3)C2)CC(c2cc(F)cc(F)c2)=NO1 (mixture of isomers) [II-07] | 100 | 80 | 90 | 100 | 100 | 100 | 100 | 100 | 100 | 100 | 90 | 80 | 80 | 80 | 80 | 90 | – | – | – | – | Herbicidal action against [%] VIOTR [17]: 80%; Herbicidal action against [%] VERPE [18]: 80%
2 | CC1(C(=O)N[C@@H]2CC=C(C(=O)O)C2)CC(c2cccc(F)c2)=NO1 (mixture of isomers) [III-01, (4R)-4-[[[(5SR)-3-(3-fluorophenyl)-5-methyl-4H-1,2-oxazol-5-yl]carbonyl]amino]cyclopentene-1-carboxylic acid] | – | – | – | – | – | – | – | – | – | 90 | 80 | – | 80 | – | – | – | – | – | – | – | –
3 | COC(=O)C1=CC[C@@H](NC(=O)C2(C)CC(c3cccc(F)c3)=NO2)C1 (mixture of isomers) [III-03, methyl (4R)-4-[[[(5SR)-3-(3-fluorophenyl)-5-methyl-4H-1,2-oxazol-5-yl]carbonyl]amino]cyclopentene-1-carboxylate] | – | – | – | – | – | – | – | – | – | 80 | – | – | 90 | – | 80 | – | 90 | – | – | – | –
4 | CN(C)NC(=O)C1=CCC(NC(=O)C2(C)CC(c3cccc(F)c3)=NO2)C1 (mixture of isomers) [IV-06] | 100 | – | 90 | 100 | 100 | 80 | 80 | 90 | 100 | – | 90 | 90 | 90 | 80 | 80 | 80 | 90 | 90 | 80 | 80 | Herbicidal action against [%] POLCO [23]: 80%; Herbicidal action against [%] VIOTR [17]: 90%
5 | CCONC(=O)[C@@H]1C=C[C@H](NC(=O)C2(C)CC(c3cccc(F)c3)=NO2)C1 (stereo partly shown) [II-04] | 100 | 80 | 90 | 90 | 90 | 100 | 90 | 100 | – | – | 90 | 80 | 80 | 80 | 80 | 80 | – | – | 80 | – | Herbicidal action against [%] MATIN [24]: 80%
6 | CC1(C(=O)N[C@H]2C=C[C@@H](C(=O)N3CCCO3)C2)CC(c2cc(F)cc(F)c2)=NO1 (stereo partly shown) [II-06] | 90 | 90 | 90 | 100 | 100 | 100 | 80 | 90 | 100 | 90 | 100 | 90 | 80 | 80 | 90 | 80 | 80 | – | 80 | 80 | Herbicidal action against [%] ABUTH [25]: 80%; Herbicidal action against [%] PHBPU [26]: 80%; Herbicidal action against [%] POLCO [23]: 80%; Herbicidal action against [%] VERPE [18]: 80%
7 | CC1(C(=O)N[C@H]2CC=C(C(=O)O)C2)CC(c2cccc(F)c2)=NO1 (stereo partly shown) [III-02] | 100 | 80 | – | 100 | – | 80 | – | 80 | – | 90 | 100 | 80 | 90 | 90 | 90 | 80 | 100 | 80 | 80 | 80 | Herbicidal action against [%] PHBPU [26]: 80%; Herbicidal action against [%] VERPE [18]: 80%
8 | COC(=O)C1=CC[C@H](NC(=O)C2(C)CC(c3cccc(F)c3)=NO2)C1 (stereo partly shown) [III-04] | 100 | 90 | 90 | 100 | 100 | 90 | 100 | 90 | 90 | 90 | 100 | 90 | 100 | 80 | 90 | 80 | 100 | 90 | 80 | 80 | Herbicidal action against [%] PHBPU [26]: 90%; Herbicidal action against [%] POLCO [23]: 80%
9 | CCOC(=O)C1=CC[C@H](NC(=O)C2(C)CC(c3cccc(F)c3)=NO2)C1 (stereo partly shown) [III-06] | 100 | 80 | 90 | 100 | 100 | – | 100 | 90 | 90 | 80 | 90 | 90 | 80 | 80 | 90 | 90 | 90 | 80 | 80 | 80 | Herbicidal action against [%] ABUTH [25]: 80%; Herbicidal action against [%] POLCO [23]: 80%
